Source: patent US6541191B2, “Photographic processing solutions” (Eastman Kodak Company, priority 1996, dated 2003)
“And” between values parts separate entries of the source, which are not always exact repeats. Equal values may be shown once. Read-outs that look alike come from different tables or passages of the source.

Columns and labels:
Assay type in all cases: physicochemical
[1] = Solubility of processing compounds (stated in the description)
[2] = Keeping test of continuously aerated developers with limited-solubility antioxidants, analysed for CD3 content (Example 2); settings: about 0.029 molar antioxidant added, developer pH 10.05; rest solid swirling in solution
Description: The compounds CSD and MCH were compared with diethyl hydroxylamine at equimolar levels in a developer of the composition shown in Table 2.
The antioxidant level was equivalent to 3.0 ml/l diethyl hydroxylamine (85%); which is about 0.029 molar. The three developers were as follows;
These developers were placed in 500 ml measuring cylinders and stirred continuously with magnetic stirrers to create a vortex depth of about 5 mm in each case in order to ensure continuous aeration.

[3] = Equilibrium level of MCH in circulated potassium carbonate solution on dilution or evaporation (Example 1); settings: potassium carbonate pH 10.5
Description: A circulation system of about 500 ml capacity was set up in which solid N-monocyclohexyl hydroxylamine (MCH) was retained behind a removable filter paper filter. The solution circulated was potassium carbonate at pH=10.5. The solution was left to circulate for 30 minutes and the amount of MCH in solution was determined by removing the paper filter that retained the MCH, drying and weighing it. […] The volume was increased by increments of 10%. In a second part of the experiment most of the solution was removed from the system and evaporated to reduce its volume, again in increments of 10%. Solid MCH came out of solution and was collected on the filter and weighed as before.

CCCNc1nc(NO)nc(NO)n1 [CSD, 4,5-dihydroxylamino-2-propylamino-1,3,5-triazine]
solubility [1]: 500 µg/mL to 1000 µg/mL and ~5000 µM

ON(Cc1ccccc1)Cc1ccccc1 [dibenzyl-hydroxylamine, reference compound]
solubility in water [1]: almost entirely insoluble in water

CCN(O)CC [Diethyl hydroxylamine, reference compound]
share of the antioxidant in solution in the developer [2]: completely in solution | solubility in water [1]: essentially miscible in all proportions with water

ONC1CCCCC1 [MCH, Mono-N-cyclohexylhydroxylamine]
share of the antioxidant in solution in the developer [2]: About 90% | time for the MCH level to adjust itself to the initial level after dilution or evaporation [3]: ≤ 30 min | MCH in Solution ([3]; volume 70 % relative to initial (evaporation)): 4.03 g/L | MCH in Solution ([3]; volume 80 % relative to initial (evaporation)): 3.92 g/L | MCH in Solution ([3]; volume 90 % relative to initial (evaporation)): 3.88 g/L | MCH in Solution ([3]; volume 100 % relative to initial, 30 minutes): 3.80 g/1 | MCH in Solution ([3]; volume 110 % relative to initial, 30 minutes): 3.81 g/L | MCH in Solution ([3]; volume 120 % relative to initial, 30 minutes): 3.87 g/L | MCH in Solution ([3]; volume 130 % relative to initial, 30 minutes): 4.11 g/L | MCH in Solution ([3]; volume 140 % relative to initial, 30 minutes): 4.05 g/L | MCH in Solution ([3]; volume 150 % relative to initial, 30 minutes): 3.96 g/L | solubility ([1]; aqueous buffer, at developer pH (10.0)): 3900 µg/mL to 4000 µg/mL and ~26000 µM

CC(C)(C)NO [mono-t-butyl-hydroxylamine, reference compound]
solubility in water [1]: too soluble
